The record followed here is patent publication US6906203B1, “Substituted 4H-chromene and analogs as activators of caspases and inducers of apoptosis and the use thereof” (Cytovia, Inc., priority 1999, dated 2005).

Experiment [1] relates to T-47D cells. Description: Caspase cascade activation assay (N-(Ac-DEVD)-N'-ethoxycarbonyl-R110 fluorogenic substrate) in T-47D. The following applies: 24 h incubation; for pEC50: read-out: Caspase potency EC50; for Caspase activity Ratio: ratio of net RFU of test compound to control. Format: cell-based, Human. How it is done: (§1) Human breast cancer cell lines T47D and ZR-75-1 were grown according to media component mixtures designated by American Type Culture Collection +10% FCS (Life Technologies, Inc.), in a 5% CO2-95% humidity incubator at 37° C. T-47D and ZR-75-1 cells were maintained at a cell density between 30 and 80% confluency at a cell density of 0.1 to 0.6×10^6 cells/ml. Cells were harvested at 600×g and resuspended at 0.65×10^6 cells/ml into appropriate media +10% FCS . […] An aliquot of 45 μl of cells was added to a well of a 96-well microtiter plate containing 5 μl of a 10% DMSO in RPMI-1640 media solution without test compound as the control sample. The samples were mixed by agitation and then incubated at 37° C. for 24 h in a 5% CO2-95% humidity incubator. After incubation, the samples were removed from the incubator and 50 μl of a solution containing 20 μM of N-(Ac-DEVD)-N′-ethoxycarbonyl-R110 (SEQ ID NO: 1) fluorogenic substrate (Cytovia, Inc.; WO99/18856), 20% sucrose (Sigma), 20 mM DTT (Sigma), 200 mM NaCl (Sigma), 40 mM Na PIPES buffer pH 7.2, and 500 μg/ml lysolecithin (Calbiochem) was added. The samples were mixed by agitation and incubated at room temperature. Using a fluorescent plate reader (Model 1420 Wallac Instruments), an initial reading (T=0) was made approximately 1-2 min after addition of the substrate solution, employing excitation at 485 nm and emission at 530 nm, to determine the background fluorescence of the control sample. After the 3 h incubation, the samples were read for fluorescence as above (T=3 h).
(§2) The Relative Fluorescence Unit values (RFU) were used to calculate the sample readings as follows: RFU(T=3h)−Control RFU (T=0)=Net RFU(T=3h)
(§3) The EC50 (nM) was determined by a sigmoidal dose-response calculation (Prism 2.0, GraphPad Software Inc.).

In experiment [2] the test system is ZR-75-1 cells. In words: Caspase cascade activation assay (N-(Ac-DEVD)-N'-ethoxycarbonyl-R110 fluorogenic substrate) in ZR-75-1. The class given is cell-based, Human. The following applies: 24 h incubation; for pEC50: read-out: Caspase potency EC50; for Caspase activity Ratio: ratio of net RFU of test compound to control. As for the experimental part:
as §1, §2, §3

A further experiment has as its system PC-3 cells. In words: Cell cycle arrest by flow cytometry (propidium iodide), PC-3. The class given is cell-based. To be noted: 1 μM, 18 h. As for the experimental part:
(§4) T47D, ZR-75-1 breast cancer cell lines and PC-3, an androgen-independent prostate cancer cell line were maintained and harvested as described in Example 148. Jurkat T leukemia cells were grown in RPMI 1640 media (Life Technologies, Inc.) +10% FCS (Sigma Chemical Company) in a 5% CO2-95% humidity incubator at 37° C., and maintained at a cell density between 4 and 8×10^5 cells/ml. 1×10^6 cells were induced with 1 μM of 2-amino-3-cyano-7-dimethylamino-4-(3-methoxy-4,5-methylenedioxyphenyl)-4H-chromene or 2-amino-3-cyano-7-dimethylamino-4-(3,4-methylenedioxyphenyl)-4H-chromene for 18 h at 37° C. As a control, cells were also incubated with DMSO. Cells were harvested at 1200 rpm and washed twice with 5 mM EDTA/PBS. Cells were then resuspended in 300 μl EDTA/PBS and […] of 100% ethanol, vortexed and incubated at room temperature for 1 h. Samples were spun down at 12000 rpm for 5 min and the supernatant was removed. A solution containing 100 μg/ml of propidium iodide and 1 mg/ml of RNAse A (fresh) was added to the samples and incubated for 1 h at room temperature. Samples were then transferred to 12×75 mm polystyrene tubes and analysed on a flow cytometer. All flow cytometry analyses were performed on FACScalibur (Becton Dickinson) using Cell Quest analysis software.

Experiment [3] deals with ZR-75-1 cells. Description: Inhibition of cell proliferation (GI50), CellTiter 96 AQUEOUS One, ZR-75-1. The class given is cell-based. The following applies: Homo sapiens, ZR-75-1, 48 h. How it is done:
(§5) T-47D and ZR-75-1 cells were grown and harvested as in Example 148. An aliquot of 90 μl of cells ([…] cells/ml) was added to a well of a 96-well microtiter plate containing 10 μl of a 10% DMSO in RPMI-1640 media solution containing 1 nM to 100 μM of 2-amino-3-cyano-7-dimethylamino-4-(3-methoxy-4,5-methylenedioxyphenyl)-4H-chromene (Example 19) or other test compound (0.1 nM to 10 μM final). An aliquot of 90 μl of cells was added to a well of a 96-well microtiter plate containing 10 μl of a 10% DMSO in RPMI-1640 media solution without compound as the control sample for maximal cell proliferation (Amax). The samples were mixed by agitation and then incubated at 37° C. for 48 h in a 5% CO2-95% humidity incubator. […] Using an absorbance plate reader (Model 1420 Wallac Instruments), an initial reading (T=0) was made approximately 1-2 min after addition of the solution, employing absorbance at 490 nm. This determines the possible background absorbance of the test compounds. No absorbance for 2-amino-3-cyano-7-dimethylamino-4-(3-methoxy-4,5-methylenedioxyphenyl)-4H-chromene or its analogs was found at 490 nm. […]
(§6) The samples were mixed by agitation and then incubated at 37° C. for 0.5 h in a 5% CO2-95% humidity incubator. […] Absorbance was read as above, (AT=0) defining absorbance for initial cell number used as baseline in GI50 determinations.

Another experiment relates to T47D cells. Description: Cell cycle arrest by flow cytometry (propidium iodide), T47D. The class given is cell-based, Human. To be noted: 1 μM, 18 h. How it is done: as §4
Experiment [4] deals with T-47D cells. Description: Inhibition of cell proliferation (GI50), CellTiter 96 AQUEOUS One, T-47D. Format: cell-based. The following applies: Homo sapiens, T47D, 48 h. As for the experimental part: as §5, §6
Where [5] appears, read: Homo sapiens, T47D, 0.016 to 1 μM final.
Setting [6] is: Homo sapiens, 0.016 to 1 μM final.

pEC50: −log10 of the molar value. “Also recorded” adds a separate entry of the source. Where two headings read alike, the source gives them in different places.

In the case of `COc1cc(C2C3=CC=C4N=CC=C4C3OC(N)=C2C#N)cc2c1OCO2` (stereo not shown) [Example 94, 2-Amino-3-cyano-4-(3-methoxy-4,5-methylenedioxyphenyl)-4H-indolo[4,5-b]pyran], the pEC50 in the experiment with T-47D cells [1] (setting [5]) was 7.31; in the experiment on ZR-75-1 cells [2] (setting [6]), 7.60. The “Caspase activity Ratio” value came to 6.5 in the experiment on T-47D cells [1] and 7.8 with ZR-75-1 cells [2].
As for `COc1cc(C2C3=CC=C4N=CC=C4C3OC(N)=C2C#N)cc(OC)c1OC` (stereo not shown) [Example 99, 2-Amino-3-cyano-4-(3,4,5-trimethoxyphenyl)-4H-indolo[4,5-b]pyran], the pEC50 in the experiment with T-47D cells [1] (setting [5]) was 7.44; in the experiment on ZR-75-1 cells [2] (setting [6]) it was 7.64. The “Caspase activity Ratio” value in the experiment with T-47D cells [1] came to 2.8; in the experiment on ZR-75-1 cells [2] it was 4.3.
Turning to `Cc1ccc(C2C(C#N)=C(N)Oc3cc(N(C)C)ccc32)cc1[N+](=O)[O-]` (stereo not shown) [Example 4, 2-Amino-3-cyano-7-dimethylamino-4-(4-methyl-3-nitropheyl)-4H-chromene], the pEC50 is 6.70 in the experiment on T-47D cells [1] (0.016 to 1 μM final) and 6.82 in the experiment with ZR-75-1 cells [2] (0.016 to 1 μM final). Besides, the “Caspase activity Ratio” value in the experiment with T-47D cells [1] worked out at 6.0; in the experiment with ZR-75-1 cells [2], 6.6.
`CN(C)c1ccc2c(c1)OC(N)=C(C#N)C2c1ccc2c(c1)OCO2` (stereo not shown) [Example 1, 2-Amino-3-cyano-7-dimethylamino-4-(3,4-methylenedioxyphenyl)-4H-chromene]: the Cell cycle arrest entry is “progression and arrest in G2/M” with PC-3 cells (listed as 2-amino-3-cyano-7-dimethylamino-4-(3,4-methylenedioxyphenyl)-4-H-chromene); “induce cell cycle arrest” in the experiment on PC-3 cells (listed as 2-amino-3-cyano-7-dimethylamino-4-(3,4-methylenedioxyphenyl)-4H-chromene); “progression and arrest in G2/M; also recorded: induce cell cycle arrest” in the experiment on T47D cells. Moreover, the values for the GI50 in the experiment on ZR-75-1 cells [3] and in the experiment with T-47D cells [4] were 10000 nM and 100 nM, respectively. In the experiment with ZR-75-1 cells [2] (setting [6]), the pEC50 is 7.22. Besides, the “Caspase activity Ratio” value in the experiment on ZR-75-1 cells [2] came out at 4.2.
In the case of `COc1cc(C2C(C#N)=C(N)Oc3cc4c(cc32)OCO4)cc2c1OCO2` (stereo not shown) [Example 14, 2-Amino-3-cyano-4-(3-methoxy-4,5-methylenedioxyphenyl)-6,7-methylenedioxy-4H-chromene], the negative-log EC50 (pEC50) with T-47D cells [1] (setting [5]) is 6.76; with ZR-75-1 cells [2] (setting [6]), 7.02. For the same compound, the “Caspase activity Ratio” value is 5.5 with T-47D cells [1] and 9.0 with ZR-75-1 cells [2].
In the case of `COc1cc(C2C(C#N)=C(N)Oc3c2ccc2ccccc32)cc(Br)c1OC` (stereo not shown) [Example 103, 2-Amino-3-cyano-4-(3-bromo-4,5-dimethoxyphenyl)-4H-naphtho[1,2-b]pyran], the pEC50 in the experiment on T-47D cells [1] (setting [5]) is 7.77; with ZR-75-1 cells [2] (setting [6]), 7.92. The figures for the “Caspase activity Ratio” value with T-47D cells [1] and in the experiment on ZR-75-1 cells [2] were 2.2 and 4.2, respectively.
With `COc1cc(Br)c(C2C3=CC=C4N=CC=C4C3OC(N)=C2C#N)cc1OC` (stereo not shown) [Example 95, 2-Amino-3-cyano-4-(2-bromo-4,5-dimethoxyphenyl)-4H-indolo[4,5-b]pyran], the pEC50 is 6.14 with T-47D cells [1] (setting [5]) and 6.44 in the experiment on ZR-75-1 cells [2] (setting [6]). In addition, the “Caspase activity Ratio” value is listed as 3.8 with T-47D cells [1] and 5.1 in the experiment with ZR-75-1 cells [2].
For `COc1cc(Br)c(C2C3=CC=C4N=C(C)C=C4C3OC(N)=C2C#N)cc1OC` (stereo not shown) [Example 96, 2-Amino-3-cyano-4-(2-bromo-4,5-dimethoxyphenyl)-8-methyl-4H-indolo[4,5-b]pyran], the “Caspase potency EC50 (nM)” value in the experiment on T-47D cells [1] (0.016 to 1 μM final) and in the experiment on ZR-75-1 cells [2] (0.016 to 1 μM final) was “Inactive” throughout. Also, the “Caspase activity Ratio” value in the experiment with T-47D cells [1] and with ZR-75-1 cells [2] was “Inactive” in each case.
In the case of `COc1cc(C2C3=CC=C4N=CC=C4C3OC(N)=C2C#N)cc(Br)c1OC` (stereo not shown) [Example 97, 2-Amino-3-cyano-4-(3-bromo-4,5-dimethoxyphenyl)-4H-indolo[4,5-b]pyran], the negative-log EC50 (pEC50) in the experiment on T-47D cells [1] (setting [5]) was 8.22; with ZR-75-1 cells [2] (setting [6]) it was 8.15. The “Caspase activity Ratio” value came out at 2.7 in the experiment on T-47D cells [1] and 5.0 in the experiment with ZR-75-1 cells [2].
On the same counts, the results for `CN(C)c1ccc2c(c1)OC(N)=C(C#N)C2c1cccc([N+](=O)[O-])c1` (stereo not shown) [Example 38, 2-Amino-3-cyano-7-dimethylamino-4-(3-nitrophenyl)-4H-chromene] are 7.35, 7.66, 12.7 and 6.5.
